target: hSERT (Homo sapiens, UniProt P31645); test: hSERT membrane radioligand binding assay (3H-citalopram), Assay 1; settings: SERT pKi, hSERT HEK-293 membranes, 1.0 nM 3H-citalopram; values given as lower bounds
Sequence (P31645 whole entry): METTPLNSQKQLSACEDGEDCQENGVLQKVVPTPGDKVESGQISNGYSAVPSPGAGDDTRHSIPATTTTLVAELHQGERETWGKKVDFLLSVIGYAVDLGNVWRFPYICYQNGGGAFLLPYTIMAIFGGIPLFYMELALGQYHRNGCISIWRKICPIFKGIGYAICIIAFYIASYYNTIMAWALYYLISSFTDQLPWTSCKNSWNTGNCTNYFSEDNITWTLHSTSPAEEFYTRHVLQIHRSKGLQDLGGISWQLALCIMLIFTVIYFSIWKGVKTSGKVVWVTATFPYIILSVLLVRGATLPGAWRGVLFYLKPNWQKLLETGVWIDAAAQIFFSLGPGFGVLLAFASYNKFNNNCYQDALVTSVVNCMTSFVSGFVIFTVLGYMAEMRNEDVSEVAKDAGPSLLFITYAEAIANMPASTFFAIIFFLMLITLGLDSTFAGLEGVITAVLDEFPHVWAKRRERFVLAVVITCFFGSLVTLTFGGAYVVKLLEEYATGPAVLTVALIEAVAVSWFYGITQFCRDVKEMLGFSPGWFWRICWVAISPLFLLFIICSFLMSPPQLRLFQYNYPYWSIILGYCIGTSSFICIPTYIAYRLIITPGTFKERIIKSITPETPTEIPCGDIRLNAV

Ki [nM]	Compound
≤ 10	CCC[C@H](Oc1ccc(Cl)cc1)[C@@H]1CCNC1 [Example 4-3, (R)-3-[(S)-1-(4-Chlorophenoxy)butyl]pyrrolidine]
≤ 10	CCC[C@@H](Oc1ccc(Cl)cc1)[C@@H]1CCNC1 [Example 4-4, (R)-3-[(R)-1-(4-Chlorophenoxy)butyl]pyrrolidine]
≤ 10	CCC[C@H](Oc1cc(Cl)cc(Cl)c1)[C@@H]1CCNC1 [Example 4-8, (R)-3-[(S)-1-(3,5-Dichlorophenoxy)butyl]pyrrolidine]
≤ 100	CCC[C@H](Oc1ccccc1Cl)[C@@H]1CCNC1 [Example 4-21, (R)-3-[(S)-1-(2-Chlorophenoxy)butyl]pyrrolidine]
≤ 100	CCC[C@@H](Oc1ccccc1Cl)[C@@H]1CCNC1 [Example 4-22, (R)-3-[(R)-1-(2-Chlorophenoxy)butyl]pyrrolidine]
≤ 10	CCC[C@H](Oc1cccc(Cl)c1Cl)[C@@H]1CCNC1 [Example 4-24, (R)-3-[(S)-1-(2,3-Dichlorophenoxy)butyl]pyrrolidine]
≤ 10	CCC[C@@H](Oc1ccc(Cl)cc1Cl)[C@H]1CCNC1 [Example 4-29, (S)-3-[(R)-1-(2,4-Dichlorophenoxy)butyl]pyrrolidine]
≤ 10	CCC[C@H](Oc1ccc(Cl)cc1Cl)[C@@H]1CCNC1 [Example 4-30, (R)-3-[(S)-1-(2,4-Dichlorophenoxy)butyl]pyrrolidine]
≤ 10	CCC[C@@H](Oc1ccc(Cl)cc1Cl)[C@@H]1CCNC1 [Example 4-31, (R)-3-[(R)-1-(2,4-Dichlorophenoxy)butyl]pyrrolidine]
≤ 100	CCC[C@@H](Oc1c(Cl)cccc1Cl)[C@H]1CCNC1 [Example 4-34, (S)-3-[(R)-1-(2,6-Dichlorophenoxy)butyl]pyrrolidine]
≤ 100	CCC[C@H](Oc1c(Cl)cccc1Cl)[C@@H]1CCNC1 [Example 4-35, (R)-3-[(S)-1-(2,6-Dichlorophenoxy)butyl]pyrrolidine]
≤ 100	CCC[C@@H](Oc1c(Cl)cccc1Cl)[C@@H]1CCNC1 [Example 4-36, (R)-3-[(R)-1-(2,6-Dichlorophenoxy)butyl]pyrrolidine]
≤ 10	CCC[C@H](Oc1ccc(C)cc1Cl)[C@@H]1CCNC1 [Example 4-38, (R)-3-[(S)-1-(2-Chloro-4-methylphenoxy)butyl]pyrrolidine]
≤ 10	CCC[C@H](Oc1cccc(Cl)c1C)[C@@H]1CCNC1 [Example 4-56, (R)-3-[(S)-1-(3-Chloro-2-methylphenoxy)butyl]pyrrolidine]
≤ 10	CCC[C@H](Oc1ccc(Cl)cc1C)[C@@H]1CCNC1 [Example 4-59, (R)-3-[(S)-1-(4-Chloro-2-methylphenoxy)butyl]pyrrolidine]

Further lines, the molecule ahead of its results:

Compound	Ki [nM]
CC[C@@H](Oc1ccc(Cl)cc1)[C@@H]1CCNC1 [Example 2-3, (R)-3-[(R)-1-(4-Chlorophenoxy)propyl]pyrrolidine]	≤ 10
CC[C@H](Oc1cccc(F)c1)[C@H]1CCNC1 [Example 2-9, (S)-3-[(S)-1-(3-Fluorophenoxy)propyl]pyrrolidine]	≤ 100
CC[C@H](Oc1ccc(F)cc1)[C@H]1CCNC1 [Example 2-12, (S)-3-[(S)-1-(4-Fluorophenoxy)propyl]pyrrolidine]	≤ 100
CC[C@H](Oc1cccc(C(F)(F)F)c1)[C@H]1CCNC1 [Example 2-16, (S)-3-[(S)-1-(3-Trifluoromethylphenoxy)propyl]pyrrolidine]	≤ 10
CC[C@H](Oc1ccc(C(F)(F)F)cc1)[C@H]1CCNC1 [Example 2-17, (S)-3-[(S)-1-(4-Trifluoromethylphenoxy)propyl]pyrrolidine]	≤ 10
CC[C@@H](Oc1c(F)cccc1Cl)[C@H]1CCNC1 [Example 2-26, (S)-3-[(R)-1-(2-Chloro-6-fluorophenoxy)propyl]pyrrolidine]	≤ 100
CC[C@H](Oc1cccc(Cl)c1Cl)[C@@H]1CCNC1 [Example 2-30, (R)-3-[(S)-1-(2,3-Dichlorophenoxy)propyl]pyrrolidine]	≤ 10
CC[C@@H](Oc1ccc(Cl)cc1Cl)[C@@H]1CCNC1 [Example 2-33, (R)-3-[(R)-1-(2,4-Dichlorophenoxy)propyl]pyrrolidine]	≤ 10
CC[C@@H](Oc1cc(F)cc(F)c1Cl)[C@H]1CCNC1 [Example 2-36, (S)-3-[(R)-1-(2-Chloro-3,5-difluorophenoxy)propyl]pyrrolidine]	≤ 100
CC[C@H](Oc1ccccc1F)[C@H]1CCNC1 [Example 2-46, (S)-3-[(S)-1-(2-Fluorophenoxy)propyl]pyrrolidine]	≤ 100
CC[C@H](Oc1c(F)cccc1F)[C@H]1CCNC1 [Example 2-49, (S)-3-[(S)-1-(2,6-Difluorophenoxy)propyl]pyrrolidine]	≤ 100
CC[C@H](Oc1ccc(F)c(F)c1F)[C@H]1CCNC1 [Example 2-50, (S)-3-[(S)-1-(2,3,4-Trifluorophenoxy)propyl]pyrrolidine]	≤ 10
CC[C@@H](Oc1c(F)ccc(Cl)c1F)[C@H]1CCNC1 [Example 2-53, (S)-3-[(R)-1-(3-Chloro-2,6-difluorophenoxy)propyl]pyrrolidine]	≤ 100
CC[C@@H](Oc1c(Cl)ccc(C)c1F)[C@H]1CCNC1 [Example 2-54, (S)-3-[(R)-1-(6-Chloro-2-fluoro-3-methylphenoxy)propyl]pyrrolidine]	≤ 100
CC[C@H](Oc1c(F)c(F)cc(F)c1F)[C@H]1CCNC1 [Example 2-56, (S)-3-[(S)-1-(2,3,5,6-Tetrafluorophenoxy)propyl]pyrrolidine]	≤ 100
CC[C@@H](Oc1ccc(Cl)cc1C)[C@H]1CCNC1 [Example 2-59, (S)-3-[(R)-1-(4-Chloro-2-methylphenoxy)propyl]pyrrolidine]	≤ 10
CC[C@H](Oc1ccc(Cl)cc1C)[C@@H]1CCNC1 [Example 2-61, (R)-3-[(S)-1-(4-Chloro-2-methylphenoxy)propyl]pyrrolidine]	≤ 10
CC[C@@H](Oc1ccccc1C)[C@H]1CCNC1 [Example 2-63, (S)-3-((R)-1-o-Tolyloxypropyl)pyrrolidine]	≤ 100
CC[C@H](Oc1ccccc1OC)[C@H]1CCNC1 [Example 2-67, (S)-3-[(S)-1-(2-Methoxyphenoxy)propyl]pyrrolidine]	≤ 100
CC[C@H](Oc1cccc(Cl)c1C(F)(F)F)[C@@H]1CCNC1 [Example 2-73, (R)-3-[(S)-1-(3-Chloro-2-trifluoromethylphenoxy)propyl]pyrrolidine]	≤ 10

target: hNET (Homo sapiens, UniProt P23975); test: hNET membrane radioligand binding assay (3H-nisoxetine), Assay 1; settings: not given
Sequence (P23975 whole entry): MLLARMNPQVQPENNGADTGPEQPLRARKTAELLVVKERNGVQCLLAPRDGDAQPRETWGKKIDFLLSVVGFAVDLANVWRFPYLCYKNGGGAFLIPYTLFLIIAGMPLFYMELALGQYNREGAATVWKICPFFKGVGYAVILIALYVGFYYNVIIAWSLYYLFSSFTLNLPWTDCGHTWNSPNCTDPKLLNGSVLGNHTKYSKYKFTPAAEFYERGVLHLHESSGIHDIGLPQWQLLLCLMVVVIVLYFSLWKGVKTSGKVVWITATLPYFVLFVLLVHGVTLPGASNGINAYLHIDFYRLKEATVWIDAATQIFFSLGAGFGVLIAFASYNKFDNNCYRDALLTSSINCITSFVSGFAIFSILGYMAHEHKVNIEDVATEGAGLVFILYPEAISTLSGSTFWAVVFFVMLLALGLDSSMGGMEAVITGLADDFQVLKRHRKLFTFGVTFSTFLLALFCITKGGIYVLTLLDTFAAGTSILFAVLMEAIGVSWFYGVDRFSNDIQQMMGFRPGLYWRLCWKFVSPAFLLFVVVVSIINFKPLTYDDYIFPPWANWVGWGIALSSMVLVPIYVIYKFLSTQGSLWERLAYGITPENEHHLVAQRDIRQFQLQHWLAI

Ki [nM]	Compound
≤ 100	CCC[C@H](Oc1ccc(Cl)cc1)[C@@H]1CCNC1 [Example 4-3, (R)-3-[(S)-1-(4-Chlorophenoxy)butyl]pyrrolidine]
≤ 100	CCC[C@@H](Oc1ccc(Cl)cc1)[C@@H]1CCNC1 [Example 4-4, (R)-3-[(R)-1-(4-Chlorophenoxy)butyl]pyrrolidine]
≤ 100	CCC[C@H](Oc1cc(Cl)cc(Cl)c1)[C@@H]1CCNC1 [Example 4-8, (R)-3-[(S)-1-(3,5-Dichlorophenoxy)butyl]pyrrolidine]
≤ 100	CCC[C@H](Oc1ccccc1Cl)[C@@H]1CCNC1 [Example 4-21, (R)-3-[(S)-1-(2-Chlorophenoxy)butyl]pyrrolidine]
≤ 10	CCC[C@@H](Oc1ccccc1Cl)[C@@H]1CCNC1 [Example 4-22, (R)-3-[(R)-1-(2-Chlorophenoxy)butyl]pyrrolidine]
≤ 100	CCC[C@H](Oc1cccc(Cl)c1Cl)[C@@H]1CCNC1 [Example 4-24, (R)-3-[(S)-1-(2,3-Dichlorophenoxy)butyl]pyrrolidine]
≤ 100	CCC[C@@H](Oc1ccc(Cl)cc1Cl)[C@H]1CCNC1 [Example 4-29, (S)-3-[(R)-1-(2,4-Dichlorophenoxy)butyl]pyrrolidine]
≤ 100	CCC[C@H](Oc1ccc(Cl)cc1Cl)[C@@H]1CCNC1 [Example 4-30, (R)-3-[(S)-1-(2,4-Dichlorophenoxy)butyl]pyrrolidine]
≤ 100	CCC[C@@H](Oc1ccc(Cl)cc1Cl)[C@@H]1CCNC1 [Example 4-31, (R)-3-[(R)-1-(2,4-Dichlorophenoxy)butyl]pyrrolidine]
≤ 10	CCC[C@@H](Oc1c(Cl)cccc1Cl)[C@H]1CCNC1 [Example 4-34, (S)-3-[(R)-1-(2,6-Dichlorophenoxy)butyl]pyrrolidine]
≤ 100	CCC[C@H](Oc1c(Cl)cccc1Cl)[C@@H]1CCNC1 [Example 4-35, (R)-3-[(S)-1-(2,6-Dichlorophenoxy)butyl]pyrrolidine]
≤ 100	CCC[C@@H](Oc1c(Cl)cccc1Cl)[C@@H]1CCNC1 [Example 4-36, (R)-3-[(R)-1-(2,6-Dichlorophenoxy)butyl]pyrrolidine]
≤ 100	CCC[C@H](Oc1ccc(C)cc1Cl)[C@@H]1CCNC1 [Example 4-38, (R)-3-[(S)-1-(2-Chloro-4-methylphenoxy)butyl]pyrrolidine]
≤ 100	CCC[C@H](Oc1cccc(Cl)c1C)[C@@H]1CCNC1 [Example 4-56, (R)-3-[(S)-1-(3-Chloro-2-methylphenoxy)butyl]pyrrolidine]
≤ 10	CCC[C@H](Oc1ccc(Cl)cc1C)[C@@H]1CCNC1 [Example 4-59, (R)-3-[(S)-1-(4-Chloro-2-methylphenoxy)butyl]pyrrolidine]

Further lines, the molecule ahead of its results:

Compound	Ki [nM]
CC[C@@H](Oc1ccc(Cl)cc1)[C@@H]1CCNC1 [Example 2-3, (R)-3-[(R)-1-(4-Chlorophenoxy)propyl]pyrrolidine]	≤ 100
CC[C@H](Oc1cccc(F)c1)[C@H]1CCNC1 [Example 2-9, (S)-3-[(S)-1-(3-Fluorophenoxy)propyl]pyrrolidine]	≤ 10
CC[C@H](Oc1ccc(F)cc1)[C@H]1CCNC1 [Example 2-12, (S)-3-[(S)-1-(4-Fluorophenoxy)propyl]pyrrolidine]	≤ 100
CC[C@H](Oc1cccc(C(F)(F)F)c1)[C@H]1CCNC1 [Example 2-16, (S)-3-[(S)-1-(3-Trifluoromethylphenoxy)propyl]pyrrolidine]	≤ 100
CC[C@H](Oc1ccc(C(F)(F)F)cc1)[C@H]1CCNC1 [Example 2-17, (S)-3-[(S)-1-(4-Trifluoromethylphenoxy)propyl]pyrrolidine]	≤ 100
CC[C@@H](Oc1c(F)cccc1Cl)[C@H]1CCNC1 [Example 2-26, (S)-3-[(R)-1-(2-Chloro-6-fluorophenoxy)propyl]pyrrolidine]	≤ 10
CC[C@H](Oc1cccc(Cl)c1Cl)[C@@H]1CCNC1 [Example 2-30, (R)-3-[(S)-1-(2,3-Dichlorophenoxy)propyl]pyrrolidine]	≤ 100
CC[C@@H](Oc1ccc(Cl)cc1Cl)[C@@H]1CCNC1 [Example 2-33, (R)-3-[(R)-1-(2,4-Dichlorophenoxy)propyl]pyrrolidine]	≤ 100
CC[C@@H](Oc1cc(F)cc(F)c1Cl)[C@H]1CCNC1 [Example 2-36, (S)-3-[(R)-1-(2-Chloro-3,5-difluorophenoxy)propyl]pyrrolidine]	≤ 100
CC[C@H](Oc1ccccc1F)[C@H]1CCNC1 [Example 2-46, (S)-3-[(S)-1-(2-Fluorophenoxy)propyl]pyrrolidine]	≤ 10
CC[C@H](Oc1c(F)cccc1F)[C@H]1CCNC1 [Example 2-49, (S)-3-[(S)-1-(2,6-Difluorophenoxy)propyl]pyrrolidine]	≤ 10
CC[C@H](Oc1ccc(F)c(F)c1F)[C@H]1CCNC1 [Example 2-50, (S)-3-[(S)-1-(2,3,4-Trifluorophenoxy)propyl]pyrrolidine]	≤ 100
CC[C@@H](Oc1c(F)ccc(Cl)c1F)[C@H]1CCNC1 [Example 2-53, (S)-3-[(R)-1-(3-Chloro-2,6-difluorophenoxy)propyl]pyrrolidine]	≤ 10
CC[C@@H](Oc1c(Cl)ccc(C)c1F)[C@H]1CCNC1 [Example 2-54, (S)-3-[(R)-1-(6-Chloro-2-fluoro-3-methylphenoxy)propyl]pyrrolidine]	≤ 10
CC[C@H](Oc1c(F)c(F)cc(F)c1F)[C@H]1CCNC1 [Example 2-56, (S)-3-[(S)-1-(2,3,5,6-Tetrafluorophenoxy)propyl]pyrrolidine]	≤ 10
CC[C@@H](Oc1ccc(Cl)cc1C)[C@H]1CCNC1 [Example 2-59, (S)-3-[(R)-1-(4-Chloro-2-methylphenoxy)propyl]pyrrolidine]	≤ 100
CC[C@H](Oc1ccc(Cl)cc1C)[C@@H]1CCNC1 [Example 2-61, (R)-3-[(S)-1-(4-Chloro-2-methylphenoxy)propyl]pyrrolidine]	≤ 100
CC[C@@H](Oc1ccccc1C)[C@H]1CCNC1 [Example 2-63, (S)-3-((R)-1-o-Tolyloxypropyl)pyrrolidine]	≤ 100
CC[C@H](Oc1ccccc1OC)[C@H]1CCNC1 [Example 2-67, (S)-3-[(S)-1-(2-Methoxyphenoxy)propyl]pyrrolidine]	≤ 10
CC[C@H](Oc1cccc(Cl)c1C(F)(F)F)[C@@H]1CCNC1 [Example 2-73, (R)-3-[(S)-1-(3-Chloro-2-trifluoromethylphenoxy)propyl]pyrrolidine]	≤ 100
